Patent publication US5843449A, “Proteins and novel peptides derived from autoantigen for use in immunotherapy of autoimmune diseases” (Akzo Nobel N.V., priority 1996, dated 1998)
Where two headings read alike, the source gives them in different places. Residues, ends and D or L forms follow the SMILES beside them.

Assays:
[1] = biological target: T1, DR4Dw4 (DRB1*0401) HLA-DR molecules (Homo sapiens, UniProt P01903+P01911, A100K/A169T/F76Y/I96L/K127E/L162R/M171V/N62H/P40V/Q125Y/R42H/S133A/S149N/S66Y/V115G/V209L/W38E); test: HLA-DR peptide binding assay (competition with biotinylated marker peptide), DR4Dw4; settings: pH = 5, 50 nM biotin-spacer-IHA(307-319)F marker peptide
T1 construct: endogenous in cells; host or cells: BSM, EBV-transformed B-cell line

[2] = biological target: DR4Dw14 HLA-DR molecules; test: HLA-DR peptide binding assay (competition with biotinylated marker peptide), DR4Dw14; set-up: species or system human; settings: pH = 5, 50 nM biotin-spacer-IHA(307-319)F marker peptide
[3] = test system: PBMC from RA patients; test: Proliferative responses of PBMC from RA patients (3H-thymidine); type: cell-based, human; settings: 10% autologous serum
Procedure: Peripheral blood mononuclear cells (PBMC) from patients who were diagnosed as suffering from RA according to the American Rheumatism Association (ARA) criteria (Arnett et al., Arthritis Rheum. 31:315, 1988) were collected.
(§1) PBMC obtained from heparinized venous peripheral blood were isolated by standard centrifugation on a Ficoll-Paque gradient. […] Cultures were incubated in a total volume of 210 μl for 7 days at 37° C. in a humidified atmosphere of 5% CO2. Cultures were pulsed during the last 18 hours with 0.25 μCi^3 H-thymidine.

[4] = test system: PBMC from healthy donors; test: Proliferative responses of PBMC from healthy donors (3H-thymidine); type: cell-based, human; settings: 10% autologous serum
Procedure: PBMC's from healthy donors carrying the DR4Dw4 (DRB1*0401) or the DR1 specificity were collected as a control.
as §1

CC(C)C[C@H](NC(=O)[C@@H](NC(=O)[C@H](Cc1ccccc1)NC(=O)[C@H](CO)NC(=O)[C@@H](N)CCCNC(=N)N)[C@@H](C)O)C(=O)N[C@@H](C)C(=O)N[C@@H](CO)C(=O)N[C@@H](CO)C(=O)N[C@@H](CCC(=O)O)C(=O)N[C@H](C(=O)NCC(=O)N[C@H](C(=O)NCC(=O)O)C(C)C)[C@@H](C)O [Peptide 2] (H-RSFTLASSETGVG-OH)
IC50 ([1]; DOT Blot, densitometer, read-out: ^R IC50, DR4Dw4, DOT Blot): 80 nM | IC50 ([1]; SDS-PAGE, visual inspection, read-out: ^R IC50, DR4Dw4, SDS-PAGE): 40 nM | IC50 ([2]; DOT Blot, densitometer, read-out: ^R IC50, DR4Dw14, DOT Blot): 190 nM | IC50 ([2]; SDS-PAGE, visual inspection, read-out: ^R IC50, DR4Dw14, SDS-PAGE): 200 nM | Proliferative response, stimulation index (SI) ([3]; RA patient 191-03 (HR), disease state IV, peptide 10 μg/l): 1 | Proliferative response, stimulation index (SI) ([3]; RA patient 191-03 (HR), disease state IV, peptide 100 μg/l): < 2 | Proliferative response, stimulation index (SI) ([3]; RA patient 215-0 (HR), disease state III-IV, peptide 25 μg/l): 3 | Proliferative response, stimulation index (SI) ([3]; RA patient 215-0 (HR), disease state III-IV, peptide 100 μg/l): 19 | Proliferative response, stimulation index (SI) ([3]; RA patient 240-0 (HR), disease state II-III, peptide 25 μg/l): 5 | Proliferative response, stimulation index (SI) ([3]; RA patient 240-0 (HR), disease state II-III, peptide 100 μg/l): 6 | Proliferative response, stimulation index (SI) ([3]; RA patient 242-0 (HR), disease state I, peptide 25 μg/l): 4 | Proliferative response, stimulation index (SI) ([3]; RA patient 243-0 (R), disease state III, peptide 10 μg/l): 1 | Proliferative response, stimulation index (SI) ([3]; RA patient 243-0 (R), disease state III, peptide 100 μg/l): 6 | Proliferative response, stimulation index (SI) ([3]; RA patient 247-0 (R), disease state III, peptide 10 μg/l): 1 | Proliferative response, stimulation index (SI) ([3]; RA patient 247-0 (R), disease state III, peptide 100 μg/l): 2 | Proliferative response, stimulation index (SI) ([3]; RA patient 248-0 (R), disease state III, peptide 10 μg/l): 1 | Proliferative response, stimulation index (SI) ([3]; RA patient 248-0 (R), disease state III, peptide 100 μg/l): 1 | Proliferative response, stimulation index (SI) ([3]; RA patient 272-0 (HR), disease state III-IV, peptide 10 μg/l): < 1 | Proliferative response, stimulation index (SI) ([3]; RA patient 272-0 (HR), disease state III-IV, peptide 100 μg/l): < 1 | Proliferative response, stimulation index (SI) ([3]; RA patient 273-0 (HR), disease state IV, peptide 10 μg/l): 7 | Proliferative response, stimulation index (SI) ([3]; RA patient 273-0 (HR), disease state IV, peptide 100 μg/l): 6 | Proliferative response, stimulation index (SI) ([3]; RA patient 275-0 (HR), disease state III, peptide 10 μg/l): 2 | Proliferative response, stimulation index (SI) ([3]; RA patient 275-0 (HR), disease state III, peptide 100 μg/l): 9 | Proliferative response, stimulation index (SI) ([3]; RA patient 276-0 (HR), disease state IV, burnt out, peptide 10 μg/l): 3 | Proliferative response, stimulation index (SI) ([3]; RA patient 276-0 (HR), disease state IV, burnt out, peptide 100 μg/l): 1 | Proliferative response, stimulation index (SI) ([3]; RA patient 280-0 (HR), disease state IV, burnt out, peptide 10 μg/l): 1 | Proliferative response, stimulation index (SI) ([3]; RA patient 280-0 (HR), disease state IV, burnt out, peptide 100 μg/l): 4 | Proliferative response, stimulation index (SI) ([4]; healthy donor 155-03 (NR), peptide 10 μg/ml): 1 | Proliferative response, stimulation index (SI) ([4]; healthy donor 155-03 (NR), peptide 100 μg/ml): 1 | Proliferative response, stimulation index (SI) ([4]; healthy donor 156-03 (NR), peptide 10 μg/ml): 1 | Proliferative response, stimulation index (SI) ([4]; healthy donor 156-03 (NR), peptide 100 μg/ml): < 1 | Proliferative response, stimulation index (SI) ([4]; healthy donor 157-03 (NR), peptide 10 μg/ml): < 2 | Proliferative response, stimulation index (SI) ([4]; healthy donor 157-03 (NR), peptide 100 μg/ml): < 2 | Proliferative response, stimulation index (SI) ([4]; healthy donor 157-04 (R), peptide 10 μg/ml): 1 | Proliferative response, stimulation index (SI) ([4]; healthy donor 157-04 (R), peptide 100 μg/ml): < 1 | Proliferative response, stimulation index (SI) ([4]; healthy donor 168-03 (NR), peptide 10 μg/ml): < 1 | Proliferative response, stimulation index (SI) ([4]; healthy donor 168-03 (NR), peptide 100 μg/ml): < 1 | Proliferative response, stimulation index (SI) ([4]; healthy donor 168.02 (NR), peptide 10 μg/ml): < 2 | Proliferative response, stimulation index (SI) ([4]; healthy donor 168.02 (NR), peptide 100 μg/ml): < 1 | Proliferative response, stimulation index (SI) ([4]; healthy donor 169-02 (NR), peptide 10 μg/ml): 1 | Proliferative response, stimulation index (SI) ([4]; healthy donor 169-02 (NR), peptide 100 μg/ml): 1 | Proliferative response, stimulation index (SI) ([4]; healthy donor 230-01 (NR), peptide 10 μg/ml): 1 | Proliferative response, stimulation index (SI) ([4]; healthy donor 230-01 (NR), peptide 100 μg/ml): 1 | Proliferative response, stimulation index (SI) ([4]; healthy donor 235-0 (NR), peptide 10 μg/ml): 1 | Proliferative response, stimulation index (SI) ([4]; healthy donor 235-0 (NR), peptide 100 μg/ml): < 2 | Proliferative response, stimulation index (SI) ([4]; healthy donor 235-01 (NR), peptide 10 μg/ml): < 1 | Proliferative response, stimulation index (SI) ([4]; healthy donor 235-01 (NR), peptide 100 μg/ml): < 1 | Proliferative response, stimulation index (SI) ([4]; healthy donor 236-01 (NR), peptide 10 μg/ml): 1 | Proliferative response, stimulation index (SI) ([4]; healthy donor 236-01 (NR), peptide 100 μg/ml): 1 | Proliferative response, stimulation index (SI) ([4]; healthy donor 237-0 (NR), peptide 10 μg/ml): < 2 | Proliferative response, stimulation index (SI) ([4]; healthy donor 237-0 (NR), peptide 100 μg/ml): < 1 | Proliferative response, stimulation index (SI) ([4]; healthy donor 237-01 (NR), peptide 10 μg/ml): 1 | Proliferative response, stimulation index (SI) ([4]; healthy donor 237-01 (NR), peptide 100 μg/ml): 1 | Proliferative response, stimulation index (SI) ([4]; healthy donor 238-01 (NR), first line so labelled, peptide 10 μg/ml): 1 | Proliferative response, stimulation index (SI) ([4]; healthy donor 238-01 (NR), first line so labelled, peptide 100 μg/ml): < 1 | Proliferative response, stimulation index (SI) ([4]; healthy donor 238-01 (NR), second line so labelled, peptide 10 μg/ml): 1 | Proliferative response, stimulation index (SI) ([4]; healthy donor 238-01 (NR), second line so labelled, peptide 100 μg/ml): 1 | Proliferative response, stimulation index (SI) ([4]; healthy donor 241-0 (NR), peptide 10 μg/ml): 1 | Proliferative response, stimulation index (SI) ([4]; healthy donor 241-0 (NR), peptide 100 μg/ml): < 1 | Proliferative response, stimulation index (SI) ([4]; healthy donor 241-01 (R), peptide 10 μg/ml): < 1 | Proliferative response, stimulation index (SI) ([4]; healthy donor 241-01 (R), peptide 100 μg/ml): < 1
